Measured values taken from ChEMBL document CHEMBL1781945, “A new series of 3-phenylcoumarins as potent and selective MAO-B inhibitors” (Bioorg Med Chem Lett, 2009).

Tests used:
Homo sapiens = species on record: Homo sapiens; assay: Selectivity index, ratio of IC50 for human recombinant MAOA to IC50 for human recombinant MAOB
[1] = target: T1, Amine oxidase [flavin-containing] A (Homo sapiens, UniProt P21397); assay: Inhibition of human recombinant MAOA expressed in BTI insect cells at 100 uM using p-tyramine substrate by fluorometric method
T1 sequence (P21397 whole entry): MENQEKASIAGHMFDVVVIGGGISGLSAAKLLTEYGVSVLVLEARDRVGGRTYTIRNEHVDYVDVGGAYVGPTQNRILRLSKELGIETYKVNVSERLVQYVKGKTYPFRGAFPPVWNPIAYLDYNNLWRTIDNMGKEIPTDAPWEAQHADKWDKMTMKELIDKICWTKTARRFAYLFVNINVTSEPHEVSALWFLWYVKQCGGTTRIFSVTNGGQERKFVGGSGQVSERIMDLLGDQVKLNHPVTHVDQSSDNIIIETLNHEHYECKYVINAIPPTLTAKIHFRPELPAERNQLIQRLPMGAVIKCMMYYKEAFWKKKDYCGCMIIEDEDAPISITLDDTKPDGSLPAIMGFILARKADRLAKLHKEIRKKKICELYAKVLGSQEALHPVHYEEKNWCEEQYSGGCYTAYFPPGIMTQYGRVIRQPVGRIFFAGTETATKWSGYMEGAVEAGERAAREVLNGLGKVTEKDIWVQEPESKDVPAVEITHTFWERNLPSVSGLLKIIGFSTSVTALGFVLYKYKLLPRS

[2] = target: T2, Amine oxidase [flavin-containing] B (Homo sapiens, UniProt P27338); assay: Inhibition of human recombinant MAOB expressed in BTI insect cells using p-tyramine substrate by fluorometric method
T2 sequence (P27338 whole entry): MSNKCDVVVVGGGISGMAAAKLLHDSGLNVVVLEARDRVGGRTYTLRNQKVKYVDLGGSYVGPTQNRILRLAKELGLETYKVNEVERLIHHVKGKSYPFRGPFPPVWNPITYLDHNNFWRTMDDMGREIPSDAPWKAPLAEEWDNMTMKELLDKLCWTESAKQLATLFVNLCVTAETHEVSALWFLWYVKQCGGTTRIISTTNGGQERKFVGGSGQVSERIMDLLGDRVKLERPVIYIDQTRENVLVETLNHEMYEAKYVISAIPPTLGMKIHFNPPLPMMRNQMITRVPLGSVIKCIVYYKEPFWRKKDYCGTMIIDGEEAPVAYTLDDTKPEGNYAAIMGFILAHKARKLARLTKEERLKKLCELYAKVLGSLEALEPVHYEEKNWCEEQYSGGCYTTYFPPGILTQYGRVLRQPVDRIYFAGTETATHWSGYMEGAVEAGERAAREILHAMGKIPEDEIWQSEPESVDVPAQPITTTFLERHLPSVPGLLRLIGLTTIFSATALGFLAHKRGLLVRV

| Ratio IC50 (Homo sapiens) | inhibition (INH) [1] | IC50 [2] [nM] | Compound |
| --- | --- | --- | --- |
| > 11100 | Not Active | 8.98 | COc1cc(OC)cc(-c2cc3cc(C)ccc3oc2=O)c1 |
| > 352 | Not Active | 284 | Cc1ccc2oc(=O)c(-c3ccccc3)cc2c1 |
| > 7660 | Not Active | 13.1 | COc1ccc(-c2cc3cc(C)ccc3oc2=O)cc1 |
| > 623 | Not Active | 161 | COc1cc(-c2cc3cc(C)ccc3oc2=O)cc(OC)c1OC |
